Experimental data reported in the supplement of paper PMC5412046.
Where a name gives a salt, the structure may show the parent alone.

Key:
SB.mhdgc-1 [1] = assay: viability at highest tested concentration (MAXR) relative to DMSO; higher = less cytotoxic; conditions: SB.mhdgc-1 (hereditary c.1380delA CDH1 gastric cancer)
Method in brief: (§1)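 Viability values are normalised to DMSO and given either at the highest concentration or as trapezoidal area under the curve. The assay used 500 hereditary or sporadic patient-derived gastric cancer cells in 5 μL medium per 1536 well, dosed by pintool with 23 nL of compound in DMSO at 11 threefold-diluted concentrations. CellTiter-Glo was added 48 h later for 30 min at room temperature, followed by luminescence reading on a ViewLux.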

SB.msgc-1 [2] = assay: as above; conditions: SB.msgc-1 (sporadic gastric cancer)
Method in brief: as §1

SB.mhdgc-1 [3] = assay: area under the dose-response curve of % viability (trapezoidal, 11 doses) (% viability x log10 concentration); higher = less cytotoxic; conditions: SB.mhdgc-1 (hereditary c.1380delA CDH1 gastric cancer)
Method in brief: as §1

SB.msgc-1 [4] = assay: as above; conditions: SB.msgc-1 (sporadic gastric cancer)
Method in brief: as §1

Row | SMILES | viability (SB.mhdgc-1 [1]) | viability (SB.msgc-1 [2]) | area under the dose-response curve (SB.mhdgc-1 [3]) | area under the dose-response curve (SB.msgc-1 [4])
1 | C[N]1C=NC=C1[C@@](N)(C2=CC=C(Cl)C=C2)C3=CC=C4N(C)C(=O)\C=C(\C5=CC=CC(=C5)Cl)C4=C3 [Tipifarnib] (top concentration 46.0829 µM) | 4.28% | 24.2% | 485 | 434
2 | CCOC(=O)N1CCN(/[N+]([O-])=N/Oc2ccc([N+](=O)[O-])cc2C#N)CC1 [JS-59-4] (top concentration 46.0829 µM) | 4.29% | 50.7% | 418 | 495
3 | O=C(Nc1cccc(Cl)c1)Nc1ncc(CCNc2ncnc3ccsc23)s1 [SNS-314] (top concentration 46.0829 µM) | 47.7% | 70.4% | 391 | 480
4 | Cc1ccc(NC(=O)c2ccc(CN3CCN(C)CC3)cc2)cc1Nc1nccc(-c2cccnc2)n1 [Imatinib] (top concentration 46.0829 µM) | 62.3% | 80.2% | 478 | 504
5 | CC(C)C[C@H](NC(=O)[C@@H](O)[C@H](N)Cc1ccccc1)C(=O)O [Ubenimex] (top concentration 46.0829 µM) | 19.7% | 88.5% | 528 | 602
6 | C[C@@H](NCCCc1cccc(C(F)(F)F)c1)c1cccc2ccccc12 [Cinacalcet] (top concentration 46.0829 µM) | 115% | 108% | 546 | 587
7 | N#C/C(=C\c1ccc(O)c(O)c1)C(=O)NCc1ccccc1 [Tyrphostin B42] (top concentration 46.0829 µM) | 62.8% | 75% | 584 | 531
8 | ClC1=CC\2=C(NC(=O)\C(=C2N[C@@H]3CN4CCC3CC4)C5=NC6=C([NH]5)C=CC=C6)C=C1 [CHIR-124] (top concentration 46.0829 µM) | 5.59% | 13.9% | 340 | 355
9 | COc1ccc(/C=C/C(=O)Nc2ccccc2C(=O)O)cc1OC [Tranilast] (top concentration 46.0829 µM) | 102% | 88.9% | 467 | 530
10 | O=C1Nc2ccc(I)cc2/C1=C/c1cc(Br)c(O)c(Br)c1 [GW-5074] (top concentration 46.0829 µM) | 56.2% | 53.8% | 518 | 453
11 | CC1=CC=CC=C1N2\C(=N/C3=C(C(=CC=C3)C)C2=O)C[N]4C=NC5=C4N=CN=C5N (top concentration 46.0829 µM) | 27.7% | 70.7% | 360 | 426
12 | CC1=C(/C=C/C(C)=C/C=C/C(C)=C/C=C/C=C(C)/C=C/C=C(C)/C=C/C2=C(C)CCCC2(C)C)C(C)(C)CCC1 [beta-Carotene] (top concentration 46.0829 µM) | 49.5% | 7.48% | 516 | 463
13 | C[C@@]12O[C@@H](C[C@]1(O)CO)n1c3ccccc3c3c4c(c5c6ccccc6n2c5c31)CNC4=O [Lestaurtinib] (top concentration 46.0829 µM) | 37.8% | 31.1% | 388 | 428
14 | Cc1ccc2c(c1)c1c(n2CCc2ccc(C)nc2)CCN(C)C1 [Latrepirdine hydrochloride] (top concentration 46.0829 µM) | 57.1% | 79.8% | 454 | 487
15 | Nc1nc2ccc(OC(F)(F)F)cc2s1 [Riluzole] (top concentration 46.0829 µM) | 62.8% | 62.1% | 520 | 508
16 | O=C/1\C=C(/OC(=C1)/C2=C3SC4=C(SC3=CC=C2)C=CC=C4)N5CCOCC5 [KU-0064] (top concentration 46.0829 µM) | 49.9% | 61.6% | 471 | 500
17 | O=C(OCC#CCSc1nnc(-c2cccc3ccccc23)o1)c1cc2ccccc2s1 (top concentration 46.0829 µM) | 101% | 81.2% | 584 | 494

Row | SMILES | viability (SB.mhdgc-1 [1]) | viability (SB.msgc-1 [2]) | area under the dose-response curve (SB.mhdgc-1 [3]) | area under the dose-response curve (SB.msgc-1 [4])
18 | COc1cc(C)c(Sc2cnc(NC(=O)c3ccc(CNC(C)C(C)C)cc3)s2)cc1C(=O)N1CCN(C(C)=O)CC1 (configuration not stated) [ITK inhibitor] (top concentration 46.0829 µM) | 37.2% | 62.7% | 454 | 522
19 | CCN(CC)C(=S)SSC(=S)N(CC)CC [Disulfiram] (top concentration 46.0829 µM) | 3.68% | 32.4% | 141 | 360
20 | Cn1cc(/C=C/C(=O)c2cccc(F)c2)cc1/C=C/C(=O)NO [MC-1568] (top concentration 46.0829 µM) | 65.8% | 46.7% | 492 | 440
21 | COC(=O)CCC1=C(C)C2=CC3=NC(=CC4=C(C)C(=C([NH]4)C=C\5N=C(C=C1[NH]2)\C(=C5C)CCC(O)=O)C=C)\C6=C\C=C(/[C@@H](C(=O)OC)[C@@]36C)C(=O)OC [Verteporfin] (top concentration 46.0829 µM) | 37.4% | 4.28% | 418 | 315
22 | O=C(c1ccc(OCCN2CCCCC2)cc1)c1c(-c2ccc(O)cc2)sc2cc(O)ccc12 [Raloxifene hydrochloride] (top concentration 46.0829 µM) | 5.75% | 62.9% | 350 | 481
23 | COCCOc1ccc2c(c1)ncn2-c1ccc2cccc(N3CCC(N)CC3)c2n1 (top concentration 46.0829 µM) | 3.21% | 43.4% | 424 | 446
24 | CCCNC(=O)[C@H]1O[C@@H]1C(=O)N[C@H](C(=O)N1CCC[C@H]1C(=O)OC)C(C)CC (some centres not stated) [CA-074 Me] (top concentration 46.0829 µM) | 19.7% | 13.6% | 512 | 516
25 | CCCCCC[C@H]1C(=O)O[C@H](C)[C@H](NC(=O)c2cccc(NC=O)c2O)C(=O)O[C@@H](C)[C@@H]1OC(=O)CC(C)C [Antimycin A] (top concentration 46.0829 µM) | 70.6% | 55.4% | 486 | 438
26 | CCc1cc(/C(C)=N/OCc2ccc(C3CCCCC3)c(C(F)(F)F)c2)ccc1CN1CC(C(=O)O)C1 [BAF-312] (top concentration 46.0829 µM) | 72.5% | 51.4% | 535 | 465
27 | C/C=C/C[C@@H](C)C(=O)[C@H]1C(=O)N[C@@H](C(C)C)C(=O)N(C)CC(=O)N(C)[C@@H](CC(C)C)C(=O)N[C@@H](C(C)C)C(=O)N(C)[C@@H](CC(C)C)C(=O)N[C@@H](C)C(=O)N[C@H](C)C(=O)N(C)[C@@H](CC(C)C)C(=O)N(C)[C@@H](CC(C)C)C(=O)N(C)[C@@H](C(C)C)C(=O)N1C [Valspodar] (top concentration 46.0829 µM) | 37.4% | 35.1% | 393 | 475
28 | O=C(N[C@H]1CN2CCC1CC2)c1ccc(Cl)cc1 (top concentration 46.0829 µM) | 45.8% | 8.07% | 511 | 555
29 | CN(CC(=O)N(Cc1ccc(C2CCCCC2)cc1)c1ccc(C(=O)O)c(O)c1)[S+](=O)([O-])c1c(F)c(F)c(F)c(F)c1F [BP-1-102] (top concentration 46.0829 µM) | 2.34% | 16.5% | 494 | 486
30 | Cc1cccc2c1CC[C@H](CN1CCC(c3c(Cl)cccc3Cl)CC1)C[C@@H]2O (top concentration 46.0829 µM) | 23.2% | 52% | 506 | 506
31 | CN1C(=O)/C=C(/NCCN(CCO)CCCC2=CC=C(C=C2)[N+]([O-])=O)N(C)C1=O [Nifekalant] (top concentration 46.0829 µM) | 32% | 78.3% | 431 | 529
32 | OC[C@H]1OC(O)C[C@@H](O)[C@@H]1O (some centres not stated) [2-Deoxyglucose] (top concentration 46.0829 µM) | 117% | 117% | 520 | 549
33 | NC[C@@H]1O[C@H](O[C@H]2[C@@H](O)[C@H](O[C@@H]3[C@@H](O)[C@H](N)C[C@H](N)[C@H]3O[C@H]3O[C@H](CN)[C@@H](O)[C@H](O)[C@H]3N)O[C@@H]2CO)[C@H](N)[C@@H](O)[C@@H]1O.O=S(=O)(O)O.O=S(=O)(O)O.O=S(=O)(O)O [Neomycin sulfate] (top concentration 46.0829 µM) | 135% | 96.6% | 578 | 516
